According to patent publication US10239869B2, “Sulfonamide compounds as voltage-gated sodium channel modulators” (LUPIN LIMITED, priority 2015, dated 2019):
Like-named read-outs stand apart in the source and are kept apart here.

Legend:
Nav 1.7 = Nav 1.7 (Homo sapiens (Human), UniProt Q15858); experiment: Inhibition of sodium channels, Red Membrane Potential Dye FLIPR assay, veratridine depolarization; type: cell-based; conditions: HEK-293 cells overexpressing the channel; read-out: Nav1.7 IC50
Sequence of Nav 1.7 (Q15858 whole entry): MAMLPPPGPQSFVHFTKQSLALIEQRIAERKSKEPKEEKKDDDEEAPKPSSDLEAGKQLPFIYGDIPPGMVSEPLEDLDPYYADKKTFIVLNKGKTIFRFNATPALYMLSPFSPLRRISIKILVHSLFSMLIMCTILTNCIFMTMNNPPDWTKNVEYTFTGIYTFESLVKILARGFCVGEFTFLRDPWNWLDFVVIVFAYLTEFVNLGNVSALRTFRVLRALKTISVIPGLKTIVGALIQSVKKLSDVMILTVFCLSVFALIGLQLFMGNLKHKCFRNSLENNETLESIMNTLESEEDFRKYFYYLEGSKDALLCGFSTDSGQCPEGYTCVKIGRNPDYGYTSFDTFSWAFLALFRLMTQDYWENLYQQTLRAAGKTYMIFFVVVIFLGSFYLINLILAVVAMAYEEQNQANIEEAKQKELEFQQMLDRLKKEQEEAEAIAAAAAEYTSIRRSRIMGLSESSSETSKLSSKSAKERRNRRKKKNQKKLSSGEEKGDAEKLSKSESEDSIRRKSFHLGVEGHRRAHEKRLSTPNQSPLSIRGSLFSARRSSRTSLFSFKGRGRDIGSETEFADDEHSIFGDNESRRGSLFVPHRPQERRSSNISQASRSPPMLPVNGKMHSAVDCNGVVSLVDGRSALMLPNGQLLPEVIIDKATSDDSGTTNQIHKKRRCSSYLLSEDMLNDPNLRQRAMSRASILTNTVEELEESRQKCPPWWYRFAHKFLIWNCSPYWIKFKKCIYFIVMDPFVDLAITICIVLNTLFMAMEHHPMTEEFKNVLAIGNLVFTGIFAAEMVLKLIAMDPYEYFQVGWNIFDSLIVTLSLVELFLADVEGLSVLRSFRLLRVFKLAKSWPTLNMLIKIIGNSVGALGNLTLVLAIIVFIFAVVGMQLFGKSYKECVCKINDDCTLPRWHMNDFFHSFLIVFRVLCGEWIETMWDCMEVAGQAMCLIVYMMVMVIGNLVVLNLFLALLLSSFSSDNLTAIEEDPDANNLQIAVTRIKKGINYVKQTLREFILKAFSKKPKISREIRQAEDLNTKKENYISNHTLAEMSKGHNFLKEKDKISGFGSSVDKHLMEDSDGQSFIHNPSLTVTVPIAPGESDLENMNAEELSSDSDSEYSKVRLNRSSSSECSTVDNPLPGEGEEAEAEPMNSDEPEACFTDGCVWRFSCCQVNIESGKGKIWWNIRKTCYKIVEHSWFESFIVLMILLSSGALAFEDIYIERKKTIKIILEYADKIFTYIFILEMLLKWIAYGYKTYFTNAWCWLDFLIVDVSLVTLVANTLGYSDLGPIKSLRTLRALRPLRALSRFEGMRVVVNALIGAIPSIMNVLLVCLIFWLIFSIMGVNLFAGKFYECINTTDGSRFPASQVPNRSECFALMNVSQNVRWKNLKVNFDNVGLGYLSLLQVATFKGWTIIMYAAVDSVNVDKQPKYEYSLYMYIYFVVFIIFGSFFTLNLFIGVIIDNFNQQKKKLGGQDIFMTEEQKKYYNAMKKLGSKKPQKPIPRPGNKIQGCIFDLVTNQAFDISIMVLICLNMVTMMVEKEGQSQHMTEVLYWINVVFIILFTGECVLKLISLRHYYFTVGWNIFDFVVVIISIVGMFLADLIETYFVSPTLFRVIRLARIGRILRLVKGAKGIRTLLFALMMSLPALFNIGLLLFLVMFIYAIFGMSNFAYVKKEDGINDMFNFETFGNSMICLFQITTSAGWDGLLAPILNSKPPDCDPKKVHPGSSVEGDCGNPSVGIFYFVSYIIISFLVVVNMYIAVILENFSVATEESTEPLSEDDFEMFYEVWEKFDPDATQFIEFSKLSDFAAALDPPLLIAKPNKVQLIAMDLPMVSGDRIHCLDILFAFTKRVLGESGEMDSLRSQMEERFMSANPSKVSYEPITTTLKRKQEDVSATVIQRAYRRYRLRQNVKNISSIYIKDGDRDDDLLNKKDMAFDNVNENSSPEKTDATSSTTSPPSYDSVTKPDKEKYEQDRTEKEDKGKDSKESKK

Nav 1.5 = Nav 1.5 (Homo sapiens (Human), UniProt Q14524); experiment: as above; type: cell-based; conditions: HEK-293 cells overexpressing the channel; for inhibition at 10 µM: HEK-293 cells overexpressing Nav 1.5
Sequence of Nav 1.5 (Q14524 whole entry): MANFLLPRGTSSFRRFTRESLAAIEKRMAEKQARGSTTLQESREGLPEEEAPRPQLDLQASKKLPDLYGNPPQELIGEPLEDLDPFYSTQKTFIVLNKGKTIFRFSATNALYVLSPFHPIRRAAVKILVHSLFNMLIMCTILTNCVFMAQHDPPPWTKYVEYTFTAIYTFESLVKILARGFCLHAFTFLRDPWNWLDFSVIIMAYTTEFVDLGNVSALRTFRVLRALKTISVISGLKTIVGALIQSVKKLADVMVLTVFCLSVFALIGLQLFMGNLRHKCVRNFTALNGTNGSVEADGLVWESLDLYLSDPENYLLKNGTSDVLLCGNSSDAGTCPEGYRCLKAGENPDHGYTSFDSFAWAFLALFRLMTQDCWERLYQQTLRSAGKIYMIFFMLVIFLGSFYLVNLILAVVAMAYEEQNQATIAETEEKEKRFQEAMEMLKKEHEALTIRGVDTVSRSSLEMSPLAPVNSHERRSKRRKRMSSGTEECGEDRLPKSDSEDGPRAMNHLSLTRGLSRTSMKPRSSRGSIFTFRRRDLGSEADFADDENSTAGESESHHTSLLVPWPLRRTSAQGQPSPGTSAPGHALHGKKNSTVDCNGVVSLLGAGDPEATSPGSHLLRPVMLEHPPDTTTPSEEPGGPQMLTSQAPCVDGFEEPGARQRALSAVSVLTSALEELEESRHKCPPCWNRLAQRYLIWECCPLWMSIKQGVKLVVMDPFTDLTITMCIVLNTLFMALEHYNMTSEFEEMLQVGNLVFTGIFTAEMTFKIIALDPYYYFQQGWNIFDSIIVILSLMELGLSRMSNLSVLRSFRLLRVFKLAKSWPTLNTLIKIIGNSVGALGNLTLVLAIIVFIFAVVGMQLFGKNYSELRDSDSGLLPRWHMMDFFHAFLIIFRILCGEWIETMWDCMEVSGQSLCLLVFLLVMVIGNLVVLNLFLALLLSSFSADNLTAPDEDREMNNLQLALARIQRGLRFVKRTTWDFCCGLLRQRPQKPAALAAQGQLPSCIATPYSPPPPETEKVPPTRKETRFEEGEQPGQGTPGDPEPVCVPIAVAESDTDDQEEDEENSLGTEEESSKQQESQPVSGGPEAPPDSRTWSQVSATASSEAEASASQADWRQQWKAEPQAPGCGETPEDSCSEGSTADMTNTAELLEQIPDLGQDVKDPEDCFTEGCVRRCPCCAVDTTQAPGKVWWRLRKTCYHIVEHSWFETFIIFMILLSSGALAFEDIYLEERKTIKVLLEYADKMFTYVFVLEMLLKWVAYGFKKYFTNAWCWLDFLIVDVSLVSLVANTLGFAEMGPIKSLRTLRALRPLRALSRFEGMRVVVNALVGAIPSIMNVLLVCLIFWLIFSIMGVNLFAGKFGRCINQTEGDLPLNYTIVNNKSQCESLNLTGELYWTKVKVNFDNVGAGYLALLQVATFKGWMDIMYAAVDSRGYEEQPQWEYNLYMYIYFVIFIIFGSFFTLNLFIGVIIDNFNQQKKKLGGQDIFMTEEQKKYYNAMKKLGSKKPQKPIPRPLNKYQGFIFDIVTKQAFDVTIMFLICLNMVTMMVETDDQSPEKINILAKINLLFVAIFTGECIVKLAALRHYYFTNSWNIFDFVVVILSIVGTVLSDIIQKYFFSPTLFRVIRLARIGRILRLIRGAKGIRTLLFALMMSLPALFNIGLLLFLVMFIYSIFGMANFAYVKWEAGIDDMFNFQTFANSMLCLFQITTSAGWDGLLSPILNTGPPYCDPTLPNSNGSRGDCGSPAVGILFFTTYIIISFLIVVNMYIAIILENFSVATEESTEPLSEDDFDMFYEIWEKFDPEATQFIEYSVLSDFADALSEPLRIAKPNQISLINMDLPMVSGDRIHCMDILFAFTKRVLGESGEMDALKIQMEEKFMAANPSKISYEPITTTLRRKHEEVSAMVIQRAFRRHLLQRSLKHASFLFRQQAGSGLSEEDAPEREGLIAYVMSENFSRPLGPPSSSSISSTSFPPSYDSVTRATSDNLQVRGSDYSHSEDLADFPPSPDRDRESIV

[1] = read-out: Nav1.5 IC50 (bound given in μM)

| SMILES | IC50 (Nav 1.7) [nM] | IC50 (Nav 1.5; [1]) [µM] | inhibition at 10 µM (Nav 1.5) [%] | IC50 (Nav 1.5; read-out: Nav1.5 IC50) [µM] |
| --- | --- | --- | --- | --- |
| O=C1CCCN1c1cc(C(F)(F)F)ccc1[C@H]1CCOc2cc(S(=O)(=O)Nc3ncccn3)ccc21 (racemic) [Example 115, (R/S)-4-(2-(2-oxopyrrolidin-1-yl)-4-(trifluoromethyl)phenyl)-N-(pyrimidin-2-yl)chroman-7-sulfonamide] | 41 | > 10 |  |  |
| O=C1CCCN1c1cc(C(F)(F)F)ccc1[C@H]1CCOc2cc(S(=O)(=O)Nc3ccncn3)ccc21 (racemic) [Example 116, (R/S)-4-(2-(2-oxopyrrolidin-1-yl)-4-(trifluoromethyl)phenyl)-N-(pyrimidin-4-yl)chroman-7-sulfonamide] | 1960 | > 10 |  |  |
| O=C1CCCN1c1cc(C(F)(F)F)ccc1[C@H]1CCOc2cc(S(=O)(=O)Nc3cccnn3)ccc21 (racemic) [Example 117, (R/S)-4-(2-(2-oxopyrrolidin-1-yl)-4-(trifluoromethyl)phenyl)-N-(pyridazin-3-yl)chromane-7-sulfonamide] | 106 | > 10 |  |  |
| O=S(=O)(Nc1cccnn1)c1ccc2c(c1)OCC[C@@H]2c1ccc(C(F)(F)F)cc1N1CCOCC1 (racemic) [Example 122, (R/S)-4-(2-morpholino-4-(trifluoromethyl)phenyl)-N-(pyridazin-3-yl)chroman-7-sulfonamide] | 38 |  | 54 |  |
| COCCc1cc(C(F)(F)F)ccc1[C@H]1CCOc2cc(S(=O)(=O)Nc3ncccn3)ccc21 (racemic) [Example 135, (R/S)-4-(2-(2-methoxyethyl)-4-(trifluoromethyl)phenyl)-N-(pyrimidin-2-yl)chroman-7-sulfonamide] | 708 | > 10 |  |  |
| COCCc1cc(C(F)(F)F)ccc1[C@H]1CCOc2cc(S(=O)(=O)Nc3ncc(F)cn3)ccc21 (racemic) [Example 136, (R/S)—N-(5-fluoropyrimidin-2-yl)-4-(2-(2-methoxyethyl)-4-(trifluoromethyl)phenyl)chroman-7-sulfonamide] | 655 |  | 33 |  |
| COCCc1cc(C(F)(F)F)ccc1[C@H]1CCOc2cc(S(=O)(=O)Nc3cccc(F)n3)ccc21 (racemic) [Example 137, (R/S)—N-(6-fluoropyridin-2-yl)-4-(2-(2-methoxyethyl)-4-(trifluoromethyl)phenyl)chroman-7-sulfonamide] | 12 |  |  | 3.64 |
| COCCCc1cc(C(F)(F)F)ccc1[C@H]1CCOc2cc(S(=O)(=O)Nc3ncc(F)cn3)ccc21 (racemic) [Example 142, (R/S)—N-(5-fluoropyrimidin-2-yl)-4-(2-(3-methoxypropyl)-4-(trifluoromethyl)phenyl)chroman-7-sulfonamide] | 179 | > 10 |  |  |
| COCCCc1cc(C(F)(F)F)ccc1[C@H]1CCOc2cc(S(=O)(=O)Nc3ccncn3)ccc21 (racemic) [Example 143, (R/S)-4-(2-(3-methoxypropyl)-4-(trifluoromethyl)phenyl)-N-(pyrimidin-4-yl)chroman-7-sulfonamide] | 16 |  |  | 0.534 |
| COCCCc1cc(C(F)(F)F)ccc1[C@H]1CCOc2cc(S(=O)(=O)Nc3cccc(F)n3)ccc21 (racemic) [Example 145, (R/S)—N-(6-fluoropyridin-2-yl)-4-(2-(3-methoxypropyl)-4-(trifluoromethyl)phenyl)chroman-7-sulfonamide] | 19 |  |  | 2.41 |
| COCCCCc1cc(C(F)(F)F)ccc1[C@H]1CCOc2cc(S(=O)(=O)Nc3ncc(F)cn3)ccc21 (racemic) [Example 148, (R/S)—N-(5-fluoropyrimidin-2-yl)-4-(2-(4-methoxybutyl)-4-(trifluoromethyl)phenyl)chroman-7-sulfonamide] | 172 | > 10 |  |  |
| COCCCCc1cc(C(F)(F)F)ccc1[C@H]1CCOc2cc(S(=O)(=O)Nc3ccncn3)ccc21 (racemic) [Example 149, (R/S)-4-(2-(4-methoxybutyl)-4-(trifluoromethyl)phenyl)-N-(pyrimidin-4-yl)chroman-7-sulfonamide] | 21 |  | 58 |  |
| O=S(=O)(Nc1ncccn1)c1ccc2c(c1)OCC[C@@H]2c1ccc(C(F)(F)F)cc1CCF (racemic) [Example 153, (R/S)-4-(2-(2-fluoroethyl)-4-(trifluoromethyl)phenyl)-N-(pyrimidin-2-yl)chroman-7-sulfonamide] | 39 |  | 35 |  |
| O=S(=O)(Nc1ncc(F)cn1)c1ccc2c(c1)OCC[C@@H]2c1ccc(C(F)(F)F)cc1CCF (racemic) [Example 154, (R/S)-4-(2-(2-fluoroethyl)-4-(trifluoromethyl)phenyl)-N-(5-fluoropyrimidin-2-yl)chroman-7-sulfonamide] | 83 | > 10 |  |  |
| O=S(=O)(Nc1ccncn1)c1ccc2c(c1)OCC[C@@H]2c1ccc(C(F)(F)F)cc1CCF (racemic) [Example 155, (R/S)-4-(2-(2-fluoroethyl)-4-(trifluoromethyl)phenyl)-N-(pyrimidin-4-yl)chroman-7-sulfonamide] | 4 | > 10 |  |  |
| O=S(=O)(Nc1cccc(F)n1)c1ccc2c(c1)OCC[C@@H]2c1ccc(C(F)(F)F)cc1CCF (racemic) [Example 157, (R/S)-4-(2-(2-fluoroethyl)-4-(trifluoromethyl)phenyl)-N-(6-fluoropyridin-2-yl)chroman-7-sulfonamide] | 42 | > 10 |  |  |
| O=S(=O)(Nc1ncccn1)c1ccc2c(c1)OCC[C@@H]2c1ccc(C(F)(F)F)cc1CCCF (racemic) [Example 158, (R/S)-4-(2-(3-fluoropropyl)-4-(trifluoromethyl)phenyl)-N-(pyrimidin-2-yl)chroman-7-sulfonamide] | 130 |  |  | 0.505 |
| O=S(=O)(Nc1ncc(F)cn1)c1ccc2c(c1)OCC[C@@H]2c1ccc(C(F)(F)F)cc1CCCF (racemic) [Example 159, (R/S)-4-(2-(3-fluoropropyl)-4-(trifluoromethyl)phenyl)-N-(5-fluoropyrimidin-2-yl)chroman-7-sulfonamide] | 10 |  |  | 0.943 |

Second part, led by results:

| IC50 (Nav 1.7) [nM] | SMILES | IC50 (Nav 1.5; [1]) [µM] | inhibition at 10 µM (Nav 1.5) [%] | IC50 (Nav 1.5; read-out: Nav1.5 IC50) [µM] |
| --- | --- | --- | --- | --- |
| 140 | COCCOc1cc(C(F)(F)F)ccc1[C@H]1CCOc2cc(S(=O)(=O)Nc3ncc(F)cn3)ccc21 (racemic) [Example 126, (R/S)—N-(5-fluoropyrimidin-2-yl)-4-(2-(2-methoxyethoxy)-4-(trifluoromethyl)phenyl)chroman-7-sulfonamide] | > 10 |  |  |
| 4 | COCCOc1cc(C(F)(F)F)ccc1[C@H]1CCOc2cc(S(=O)(=O)Nc3ccncn3)ccc21 (racemic) [Example 127, (R/S)-4-(2-(2-methoxyethoxy)-4-(trifluoromethyl)phenyl)-N-(pyrimidin-4-yl)chroman-7-sulfonamide] |  | 37 |  |
| 145 | COCCOc1cc(C(F)(F)F)ccc1[C@H]1CCOc2cc(S(=O)(=O)Nc3cccnn3)ccc21 (racemic) [Example 128, (R/S)-4-(2-(2-methoxyethoxy)-4-(trifluoromethyl)phenyl)-N-(pyridazin-3-yl)chroman-7-sulfonamide] |  | 55 |  |
| 16 | COCCOc1cc(C(F)(F)F)ccc1[C@H]1CCOc2cc(S(=O)(=O)Nc3cccc(F)n3)ccc21 (racemic) [Example 129, (R/S)—N-(6-fluoropyridin-2-yl)-4-(2-(2-methoxyethoxy)-4-(trifluoromethyl)phenyl)chroman-7-sulfonamide] |  | 62 |  |
| 163 | COCCCOc1cc(C(F)(F)F)ccc1[C@H]1CCOc2cc(S(=O)(=O)Nc3ncc(F)cn3)ccc21 (racemic) [Example 132, (R/S)—N-(5-fluoropyrimidin-2-yl)-4-(2-(3-methoxypropoxy)-4-(trifluoromethyl)phenyl)chroman-7-sulfonamide] | > 10 |  |  |
| 128 | COCCCOc1cc(C(F)(F)F)ccc1[C@H]1CCOc2cc(S(=O)(=O)Nc3cccnn3)ccc21 (racemic) [Example 133, (R/S)-4-(2-(3-methoxypropoxy)-4-(trifluoromethyl)phenyl)-N-(pyridazin-3-yl)chroman-7-sulfonamide] |  | 66 |  |
| 31 | COCCCOc1cc(C(F)(F)F)ccc1[C@H]1CCOc2cc(S(=O)(=O)Nc3cccc(F)n3)ccc21 (racemic) [Example 134, (R/S)—N-(6-fluoropyridin-2-yl)-4-(2-(3-methoxypropoxy)-4-(trifluoromethyl)phenyl)chroman-7-sulfonamide] |  |  | 1.34 |
| 588 | COCCc1cc(C(F)(F)F)ccc1[C@H]1CCOc2cc(S(=O)(=O)Nc3ccncn3)ccc21 (racemic) [Example 138, (R/S)-4-(2-(2-methoxyethyl)-4-(trifluoromethyl)phenyl)-N-(pyrimidin-4-yl)chroman-7-sulfonamide] | > 10 |  |  |
| 33 | COCCc1cc(C(F)(F)F)ccc1[C@H]1CCOc2cc(S(=O)(=O)Nc3cccnn3)ccc21 (racemic) [Example 139, (R/S)-4-(2-(2-methoxyethyl)-4-(trifluoromethyl)phenyl)-N-(pyridazin-3-yl)chroman-7-sulfonamide] | > 10 |  |  |
| 86 | COCCCc1cc(C(F)(F)F)ccc1[C@H]1CCOc2cc(S(=O)(=O)Nc3cccnn3)ccc21 (racemic) [Example 144, (R/S)-4-(2-(3-methoxypropyl)-4-(trifluoromethyl)phenyl)-N-(pyridazin-3-yl)chroman-7-sulfonamide] |  |  | 2.68 |
| 31 | COCCCCc1cc(C(F)(F)F)ccc1[C@H]1CCOc2cc(S(=O)(=O)Nc3cccnn3)ccc21 (racemic) [Example 150, (R/S)-4-(2-(4-methoxybutyl)-4-(trifluoromethyl)phenyl)-N-(pyridazin-3-yl)chroman-7-sulfonamide] |  |  | 1.43 |
| 42 | O=S(=O)(Nc1cccnn1)c1ccc2c(c1)OCC[C@@H]2c1ccc(C(F)(F)F)cc1CCF (racemic) [Example 156, (R/S)-4-(2-(2-fluoroethyl)-4-(trifluoromethyl)phenyl)-N-(pyridazin-3-yl)chroman-7-sulfonamide] |  | 36 |  |
